Publication PMC8836258, “Structural Basis of Redox-Sensing Transcriptional Repressor Rex with Cofactor NAD^+ and Operator DNA” (International Journal of Molecular Sciences, 2022)

Target: T1, Tma Rex (Thermotoga maritima, UniProt Q9WY16)
T1 construct: gene rex1; Full-length, residues 1-208 (5-207 modelled); homodimer; P-loop residues 89-94 GAGNIG; crystallised with 22-bp TM0201 operator DNA
T1 sequence (Q9WY16 1-208): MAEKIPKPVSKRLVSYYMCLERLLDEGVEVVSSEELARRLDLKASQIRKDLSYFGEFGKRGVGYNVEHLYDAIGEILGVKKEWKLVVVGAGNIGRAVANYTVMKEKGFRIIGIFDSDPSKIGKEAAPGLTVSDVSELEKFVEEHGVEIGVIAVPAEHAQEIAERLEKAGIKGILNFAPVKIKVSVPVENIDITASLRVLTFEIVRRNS
Assay: X-ray crystallography, co-crystal structure at […] A
Assay type: binding
Conditions: ternary complex with 22-bp TM0201 operator DNA; 1 mM NAD+ in co-crystallization; pH 6.5, 296 K; one NAD+ per monomer, C-terminal Rossmann domain near dimer interface

Structure (SMILES): NC(=O)c1ccc[n+]([C@@H]2O[C@H](COP(=O)(O)OP(=O)(O)OC[C@H]3O[C@@H](n4cnc5c(N)ncnc54)[C@H](O)[C@@H]3O)[C@@H](O)[C@H]2O)c1 [NAD^+]
- X-ray crystallography, co-crystal structure at 2.40 A: a dimeric Rex protein bound to one molecule of NAD^+ per monomer
